In data set [1] the test system is Mycobacterium smegmatis DSM 43465 (ATCC 607). The experiment in a line: Microdilution broth, modified Microplate Alamar Blue Assay, whole cell growth inhibition. It is filed as cell-based. As to conditions: Mycolicibacterium smegmatis; in vitro, Middlebrook 7H9 broth, resazurin; read-out: MIC Mycobacterium smegmatis. (Dilution methods test growth across graded concentrations, often in twofold steps.)

The test system of data set [2] is Mycobacterium aurum DSM 43999 (ATCC 23366). The description is as above. It is filed as cell-based. As to conditions: Mycolicibacterium aurum; in vitro, Middlebrook 7H9 broth, resazurin; read-out: MIC Mycobacterium aurum. In general terms: Resazurin is reduced to fluorescent resorufin, in cell work by metabolically active cells.
Data set [3] concerns Mycobacterium tuberculosis H37Ra ITM-M006710 (ATCC 9431). The description is as above. It is filed as cell-based. As to conditions: Mycobacterium tuberculosis; in vitro, Middlebrook 7H9 broth, resazurin; read-out: MIC Mtb H37Ra.
Data set [4] relates to Serratia marcescens. The experiment in a line: Antibacterial microdilution broth method (EUCAST). It is filed as cell-based. To be noted: 48 h, standards, read-out: MIC against Serratia marcescens.
Data set [5] deals with M. kansasii CNCTC My 235/80 (ATCC 12478). The experiment in a line: 96 well plate microdilution broth method with Alamar Blue. It is filed as cell-based. As to conditions: Mycobacterium kansasii, ATCC12478; Middlebrook 7H9 broth pH 6.6; read-out: MIC Mycobacterium kansasii.
The subject of data set [6] is HepG2 cells. The experiment in a line: HepG2 cytotoxicity, CellTiter 96 (MTS) assay. To be noted: for IC50: Homo sapiens, HepG2, 24 h incubation, > means higher concentration not reproducible due to precipitation, read-out: HepG2 IC50. It is filed as cell-based, human.
Data set [7] relates to M. avium ssp. avium CNCTC My 80/72 (ATCC 15769). The experiment in a line: 96 well plate microdilution broth method with Alamar Blue. It is filed as cell-based. As to conditions: Mycobacterium avium, ATCC15769; Middlebrook 7H9 broth pH 6.6; read-out: MIC Mycobacterium avium.
Data set [8] is classed as physicochemical. A digest of the protocol:
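Broth microdilution per EUCAST, slightly modified, against clinically relevant fungal and bacterial strains; MIC expressed in µM.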

The test system of data set [9] is Staphylococcus aureus methicillin resistant ATCC 43300, CCM 4750. The experiment in a line: microbe, parasite or virus in culture. It is filed as cell-based. To be noted: 48 h, read-out: MIC against Staphylococcus aureus methicillin resistant.
Data set [10] has as its system Escherichia coli ATCC 25922, CCM 3954. The experiment in a line: Antibacterial microdilution broth method (EUCAST). It is filed as cell-based. To be noted: 48 h, read-out: MIC against Escherichia coli.
Data set [11] deals with Klebsiella pneumoniae ATCC 10031, CCM 4415. The experiment in a line: Antibacterial microdilution broth method (EUCAST). To be noted: Klebsiella pneumoniae, ATCC10031|CCM4415, 48 h, read-out: MIC against Klebsiella pneumoniae.
Data set [12] has as its system Pseudomonas aeruginosa ATCC 27853, CCM 3955. The experiment in a line: Antibacterial microdilution broth method (EUCAST). It is filed as cell-based. To be noted: 48 h, read-out: MIC against Pseudomonas aeruginosa.
Data set [13] concerns Staphylococcus aureus spp.aureus ATCC 29213, CCM 4223. The experiment in a line: Antibacterial microdilution broth method (EUCAST). To be noted: 48 h, read-out: MIC against Staphylococcus aureus. It is filed as cell-based.
The test system of data set [14] is Staphylococcus epidermidis ATCC 12228, CCM 4418. The experiment in a line: Antibacterial microdilution broth method (EUCAST). It is filed as cell-based. As to conditions: 48 h, read-out: MIC against Staphylococcus epidermidis.
The subject of data set [15] is Enterococcus faecalis ATCC 29212, CCM 4224. The experiment in a line: Antibacterial microdilution broth method (EUCAST). It is filed as cell-based. To be noted: 48 h, read-out: MIC against Enterococcus faecalis.

Converted amounts (≈) assume the structure as drawn.

Five molecules from paper PMC7180572, “5-Alkylamino-N-phenylpyrazine-2-carboxamides: Design, Preparation, and Antimycobacterial Evaluation” (Molecules, 2020) can be followed below.

As for `O=C(O)c1cn(C2CC2)c2cc(N3CCNCC3)c(F)cc2c1=O` [CPX, ciprofloxacin, reference compound], the MIC is 0.0625 to 0.125 µg/mL (≈ 0.189 to 0.377 µM) in [1], 0.0156 to 0.0313 µg/mL (≈ 0.0471 to 0.0945 µM) in data set [2], 0.125 to 0.25 µg/mL (≈ 0.377 to 0.754 µM) in data set [3] and 0.256 µg/mL (≈ 0.773 µM) in data set [4].

Take `CCCCCNc1cnc(C(=O)Nc2ccc(Cl)cc2O)cn1` [Compound 6c, N-(4-chloro-2-hydroxyphenyl)-5-(pentylamino)pyrazine-2-carboxamide]: the melting point is 206.5 to 208.7 °C. Moreover, in data set [1], the MIC came out at 3.91 µg/mL (≈ 11.7 µM). For the same molecule, the MIC in data set [5] was 25 µg/mL (≈ 74.7 µM). In addition, in [2], the MIC was no less than 500 µg/mL. Besides, the MIC in data set [3] was no less than 500 µg/mL. Moreover, in [6], the IC50 was found to be 81.1 µM. For the same molecule, the MIC in [7] is greater than 100 µg/mL. In [8], the “Solubility problem in antibacterial/antifungal testing” value is given as “did not dissolve in DMSO”.

For `CCCCCCNc1cnc(C(=O)Nc2ccc(Cl)cc2O)cn1` [Compound 6d, N-(4-chloro-2-hydroxyphenyl)-5-(hexylamino)pyrazine-2-carboxamide], the melting point lay within 201.7 to 204.9 °C. The MIC in data set [1] turned out to be 3.91 µg/mL (≈ 11.2 µM). Further, the MIC in [5] was 25 µg/mL (≈ 71.7 µM). For the same molecule, the MIC in data set [2] was no less than 500 µg/mL. The MIC in data set [3] worked out at 3.13 µg/mL (≈ 8.97 µM). In addition, in data set [6], the half-inhibitory concentration (IC50) was greater than 50 µM. Also, the “SI, selectivity index” value in data set [6] (IC50 (HepG2)/MIC against Mtb H37Ra (in µM)) is on record as greater than 5.27. In addition, in [7], the MIC was greater than 100 µg/mL. Besides, the “Solubility problem in antibacterial/antifungal testing” value in data set [8] was “did not dissolve in DMSO”.

Molecule `CCCCCCCNc1cnc(C(=O)Nc2ccc(Cl)cc2O)cn1` [Compound 6e, N-(4-chloro-2-hydroxyphenyl)-5-(heptylamino)pyrazine-2-carboxamide] came in with a melting point of 199.8 to 200.8 °C. Moreover, the MIC in [1] was no less than 500 µg/mL. For the same molecule, in data set [5], the MIC was found to be 25 µg/mL (≈ 68.9 µM). The MIC in data set [2] was no less than 500 µg/mL. For the same molecule, in data set [3], the MIC was no less than 500 µg/mL. In addition, in [6], the IC50 was greater than 25 µM. In addition, the MIC in data set [7] is greater than 100 µg/mL. Besides, the “Solubility problem in antibacterial/antifungal testing” value in [8] is given as “did not dissolve in DMSO”.

For `CNC(C)C1CCC(N)C(OC2C(N)CC(N)C(OC3OCC(C)(O)C(NC)C3O)C2O)O1` (stereo not shown) [gentamicin, reference compound], the MIC in data set [9] was 16 to 32 µg/mL (≈ 33.5 to 67 µM); in data set [10], 1 to 2 µg/mL (≈ 2.09 to 4.19 µM); in [11], greater than 8 µg/mL; in data set [12], 0.5 µg/mL (≈ 1.05 µM); in data set [13], 1 µg/mL (≈ 2.09 µM); in data set [4], 2 µg/mL (≈ 4.19 µM). In addition, the MIC in data set [14] was greater than 8 µg/mL; in data set [15], 8 µg/mL (≈ 16.8 µM).

Broadly, the melting point is the temperature, or range, at which the solid turns liquid. For orientation: IC50 means the point on the concentration scale where inhibition reaches its midpoint.
